According to ChEMBL document CHEMBL1201862, “PubChem BioAssay data set” (2004):
The source made the active and inactive calls.

How the values were obtained:
[1] = target: T1, Epstein-Barr nuclear antigen 1 (Epstein-Barr virus (strain B95-8) (HHV-4) (Human herpesvirus 4), UniProt P03211); experiment: inhibition of EBV nuclear antigen 1 DNA binding – biochemical, fluorescence polarization, 1536-well, dose response (AID 2381); parameters: species or system human gammaherpesvirus 4;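 note: fluorescence polarization of a Cy5 DNA probe bound by EBNA-1 protein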
T1 sequence (P03211 whole entry): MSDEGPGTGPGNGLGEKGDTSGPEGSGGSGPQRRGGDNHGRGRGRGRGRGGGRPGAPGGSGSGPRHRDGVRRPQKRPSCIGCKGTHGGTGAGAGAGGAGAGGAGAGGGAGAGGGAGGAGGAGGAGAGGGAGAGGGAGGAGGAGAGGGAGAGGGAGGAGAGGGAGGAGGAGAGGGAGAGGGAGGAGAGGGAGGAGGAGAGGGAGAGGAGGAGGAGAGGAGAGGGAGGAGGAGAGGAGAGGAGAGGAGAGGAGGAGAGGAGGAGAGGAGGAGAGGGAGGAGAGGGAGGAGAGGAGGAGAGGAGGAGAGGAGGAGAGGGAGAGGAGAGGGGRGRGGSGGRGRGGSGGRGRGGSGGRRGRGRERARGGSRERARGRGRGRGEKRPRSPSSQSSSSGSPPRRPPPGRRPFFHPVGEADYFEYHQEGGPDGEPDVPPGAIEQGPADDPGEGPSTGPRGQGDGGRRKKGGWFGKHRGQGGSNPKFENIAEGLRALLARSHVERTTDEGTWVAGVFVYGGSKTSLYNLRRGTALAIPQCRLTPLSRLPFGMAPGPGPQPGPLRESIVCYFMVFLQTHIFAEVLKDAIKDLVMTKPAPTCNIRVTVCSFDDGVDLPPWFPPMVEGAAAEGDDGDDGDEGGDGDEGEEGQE

[2] = target: T2, Lytic switch protein BZLF1 (Epstein-Barr virus (strain B95-8) (HHV-4) (Human herpesvirus 4), UniProt P03206); experiment: inhibition of BZLF1 ZTA DNA binding – biochemical, fluorescence polarization, Epstein-Barr virus, 1536-well, counter-screen for EBNA-1 inhibitor project, dose response (AID 2377); parameters: species or system human gammaherpesvirus 4;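 note: fluorescence polarization of Cy5-labelled ZRE DNA probe bound by purified Zta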
T2 sequence (P03206 whole entry): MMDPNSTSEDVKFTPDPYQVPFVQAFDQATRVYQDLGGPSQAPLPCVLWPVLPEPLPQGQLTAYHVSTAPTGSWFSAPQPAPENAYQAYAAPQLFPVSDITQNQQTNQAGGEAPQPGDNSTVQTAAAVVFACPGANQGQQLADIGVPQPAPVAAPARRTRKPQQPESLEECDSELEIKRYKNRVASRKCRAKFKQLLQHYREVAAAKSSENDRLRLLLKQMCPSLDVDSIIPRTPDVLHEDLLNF

Mucolipin-3 = target: T3, Mucolipin-3 (Homo sapiens, UniProt Q8TDD5); experiment: Dose response cell-based high-throughput screening assay for agonists of the transient receptor potential channel ML3 (TRPML3). [Related pubchem assays: 1526, 1424, 1448 ]; format: functional
T3 sequence (Q8TDD5 whole entry): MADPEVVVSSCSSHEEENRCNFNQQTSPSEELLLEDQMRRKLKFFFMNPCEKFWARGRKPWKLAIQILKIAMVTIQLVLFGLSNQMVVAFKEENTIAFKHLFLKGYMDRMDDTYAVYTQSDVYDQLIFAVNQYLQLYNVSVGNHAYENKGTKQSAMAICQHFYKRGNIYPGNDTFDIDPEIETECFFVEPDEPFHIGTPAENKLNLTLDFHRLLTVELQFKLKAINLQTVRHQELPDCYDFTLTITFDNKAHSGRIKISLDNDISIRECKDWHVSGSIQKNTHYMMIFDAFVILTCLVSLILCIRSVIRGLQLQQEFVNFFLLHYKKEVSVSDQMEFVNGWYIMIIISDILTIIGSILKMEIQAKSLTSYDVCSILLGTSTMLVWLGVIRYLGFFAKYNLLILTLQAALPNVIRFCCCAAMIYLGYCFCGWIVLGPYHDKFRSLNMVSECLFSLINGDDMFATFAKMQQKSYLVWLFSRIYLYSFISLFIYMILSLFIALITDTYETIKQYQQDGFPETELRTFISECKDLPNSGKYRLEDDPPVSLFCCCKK

Ion channel NompC = Ion channel NompC (Danio rerio, UniProt Q7T1G6); experiment: Fluorescence counterscreen assay for TRPML3 agonists: dose response cell-based high-throughput screening assay to identify agonists of the transient receptor potential channel N1 (TRPN1). [Related pubchem assays: 1526, 1424, 1448 ]; format: functional
Bcl-2-related protein A1 [3] = target: T4, Bcl-2-related protein A1 (Mus musculus, UniProt Q07440); experiment: small-molecule antagonists of Bfl-1/BH3 interaction – biochemical, TR-FRET, mouse Bfl-1, confirmation (AID 621);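 note: TR-FRET binding of GST-Bfl-1 to FITC-labelled Bid peptide via terbium antibody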
T4 sequence (Q07440 whole entry): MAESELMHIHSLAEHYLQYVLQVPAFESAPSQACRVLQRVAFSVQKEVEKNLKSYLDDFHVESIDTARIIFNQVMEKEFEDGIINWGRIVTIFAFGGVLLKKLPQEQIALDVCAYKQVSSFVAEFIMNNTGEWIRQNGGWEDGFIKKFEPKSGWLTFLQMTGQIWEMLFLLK

Bcl-2-related protein A1 [4] = target: T4, Bcl-2-related protein A1; experiment: Bfl-1 binding inhibitors, SAR follow-up, biochemical, fluorescence polarization (AID 1070)
[5] = target: Glyceraldehyde-3-phosphate dehydrogenase (Homo sapiens, UniProt P04406)
Estrogen receptor beta [6] = target: T5, Estrogen receptor beta (Homo sapiens, UniProt Q92731);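 note: recombinant ER-beta bound to coactivator SRC1 peptide in presence of estradiol agonist; inhibitors block coactivator peptide binding and lower the FRET signal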
Estrogen receptor beta [7] = target: T5, Estrogen receptor beta; experiment: blockers of SRC-3 recruitment to ERβ – biochemical, ELISA, streptavidin-HRP readout, orthogonal assay, confirmation (AID 1060)
[8] = target: T6, Carboxy-terminal domain RNA polymerase II polypeptide A small phosphatase 1 (Homo sapiens, UniProt Q9GZU7); experiment: CTDSP1 inhibitors, concentration-response, biochemical, absorbance readout, ultra-high-throughput screen actives (AID 540297); format: functional
T6 sequence (Q9GZU7 whole entry): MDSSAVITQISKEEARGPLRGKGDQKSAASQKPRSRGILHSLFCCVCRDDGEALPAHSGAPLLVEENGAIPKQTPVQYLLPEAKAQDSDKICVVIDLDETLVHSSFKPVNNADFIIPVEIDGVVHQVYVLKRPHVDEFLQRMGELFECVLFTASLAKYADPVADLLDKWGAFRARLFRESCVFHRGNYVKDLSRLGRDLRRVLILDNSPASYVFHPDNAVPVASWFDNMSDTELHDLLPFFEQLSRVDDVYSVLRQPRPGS

[9] = target: Voltage-gated inwardly rectifying potassium channel KCNH2 (Homo sapiens, UniProt Q12809); experiment: concentration-dependent hERG rescue from blockers – cell-based, thallium flux, dose response (AID 2121); format: ADME
Cytochrome P450 2C9 = Cytochrome P450 2C9 (Homo sapiens, UniProt P11712); conditions: Potency
Cytochrome P450 2D6 = Cytochrome P450 2D6 (Homo sapiens, UniProt P10635); experiment: qHTS Assay for Inhibitors and Substrates of Cytochrome P450 2D6. [Related pubchem assays: 410 ]; format: ADME; conditions: read-out: Potency
[10] = target: FAD-linked sulfhydryl oxidase ALR (Homo sapiens, UniProt P55789); experiment: ALR-catalysed DTT oxidation blockers – biochemical, H2O2 detection, luminescence, cherry-pick, dose response (AID 493248)
[11] = target: Protein-tyrosine kinase 2-beta (Homo sapiens, UniProt Q14289);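 note: potency of inhibitors of PYK2 kinase phosphorylation of poly-GT substrate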
Sequence of Protein-tyrosine kinase 2-beta (Q14289 whole entry): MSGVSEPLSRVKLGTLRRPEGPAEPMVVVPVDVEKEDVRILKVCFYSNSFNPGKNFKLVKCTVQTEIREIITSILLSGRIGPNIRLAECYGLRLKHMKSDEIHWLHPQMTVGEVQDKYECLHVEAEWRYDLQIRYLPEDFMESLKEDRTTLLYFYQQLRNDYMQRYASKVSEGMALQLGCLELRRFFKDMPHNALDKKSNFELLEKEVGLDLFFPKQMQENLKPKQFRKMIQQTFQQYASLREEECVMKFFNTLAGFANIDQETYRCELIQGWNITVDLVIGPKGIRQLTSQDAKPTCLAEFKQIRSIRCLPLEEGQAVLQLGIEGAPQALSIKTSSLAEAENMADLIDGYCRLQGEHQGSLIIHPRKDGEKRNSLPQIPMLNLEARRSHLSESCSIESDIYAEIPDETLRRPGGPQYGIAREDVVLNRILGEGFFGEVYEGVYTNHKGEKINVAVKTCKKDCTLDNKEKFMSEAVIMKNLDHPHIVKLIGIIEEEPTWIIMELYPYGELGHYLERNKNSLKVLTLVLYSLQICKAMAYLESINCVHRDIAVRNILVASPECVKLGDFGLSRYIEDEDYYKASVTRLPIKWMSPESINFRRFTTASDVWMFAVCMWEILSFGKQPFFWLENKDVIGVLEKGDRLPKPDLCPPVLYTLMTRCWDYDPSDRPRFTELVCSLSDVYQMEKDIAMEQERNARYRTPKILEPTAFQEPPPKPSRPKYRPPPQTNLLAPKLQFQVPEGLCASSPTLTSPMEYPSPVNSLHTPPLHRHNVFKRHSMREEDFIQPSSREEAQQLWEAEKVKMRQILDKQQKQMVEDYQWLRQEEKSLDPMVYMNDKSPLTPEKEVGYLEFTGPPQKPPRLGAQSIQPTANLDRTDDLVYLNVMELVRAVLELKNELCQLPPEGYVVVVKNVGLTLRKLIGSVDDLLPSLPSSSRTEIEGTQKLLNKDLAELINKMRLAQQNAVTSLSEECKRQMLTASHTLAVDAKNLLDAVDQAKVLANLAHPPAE

T5 sequence (Q92731 whole entry): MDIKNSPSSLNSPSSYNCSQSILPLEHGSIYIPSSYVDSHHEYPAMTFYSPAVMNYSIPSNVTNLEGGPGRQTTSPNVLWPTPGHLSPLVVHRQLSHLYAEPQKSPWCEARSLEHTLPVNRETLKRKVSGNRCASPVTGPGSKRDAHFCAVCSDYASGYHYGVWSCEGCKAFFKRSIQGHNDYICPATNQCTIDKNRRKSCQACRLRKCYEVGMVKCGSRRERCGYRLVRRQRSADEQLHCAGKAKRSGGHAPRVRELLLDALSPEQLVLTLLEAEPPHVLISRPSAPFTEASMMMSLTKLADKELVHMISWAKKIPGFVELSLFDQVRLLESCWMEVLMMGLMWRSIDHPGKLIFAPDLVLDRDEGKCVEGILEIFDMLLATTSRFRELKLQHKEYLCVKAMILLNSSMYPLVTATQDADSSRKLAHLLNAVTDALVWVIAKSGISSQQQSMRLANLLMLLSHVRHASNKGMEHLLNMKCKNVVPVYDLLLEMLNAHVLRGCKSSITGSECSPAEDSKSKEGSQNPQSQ
Sequence of Ion channel NompC (Q7T1G6 whole entry): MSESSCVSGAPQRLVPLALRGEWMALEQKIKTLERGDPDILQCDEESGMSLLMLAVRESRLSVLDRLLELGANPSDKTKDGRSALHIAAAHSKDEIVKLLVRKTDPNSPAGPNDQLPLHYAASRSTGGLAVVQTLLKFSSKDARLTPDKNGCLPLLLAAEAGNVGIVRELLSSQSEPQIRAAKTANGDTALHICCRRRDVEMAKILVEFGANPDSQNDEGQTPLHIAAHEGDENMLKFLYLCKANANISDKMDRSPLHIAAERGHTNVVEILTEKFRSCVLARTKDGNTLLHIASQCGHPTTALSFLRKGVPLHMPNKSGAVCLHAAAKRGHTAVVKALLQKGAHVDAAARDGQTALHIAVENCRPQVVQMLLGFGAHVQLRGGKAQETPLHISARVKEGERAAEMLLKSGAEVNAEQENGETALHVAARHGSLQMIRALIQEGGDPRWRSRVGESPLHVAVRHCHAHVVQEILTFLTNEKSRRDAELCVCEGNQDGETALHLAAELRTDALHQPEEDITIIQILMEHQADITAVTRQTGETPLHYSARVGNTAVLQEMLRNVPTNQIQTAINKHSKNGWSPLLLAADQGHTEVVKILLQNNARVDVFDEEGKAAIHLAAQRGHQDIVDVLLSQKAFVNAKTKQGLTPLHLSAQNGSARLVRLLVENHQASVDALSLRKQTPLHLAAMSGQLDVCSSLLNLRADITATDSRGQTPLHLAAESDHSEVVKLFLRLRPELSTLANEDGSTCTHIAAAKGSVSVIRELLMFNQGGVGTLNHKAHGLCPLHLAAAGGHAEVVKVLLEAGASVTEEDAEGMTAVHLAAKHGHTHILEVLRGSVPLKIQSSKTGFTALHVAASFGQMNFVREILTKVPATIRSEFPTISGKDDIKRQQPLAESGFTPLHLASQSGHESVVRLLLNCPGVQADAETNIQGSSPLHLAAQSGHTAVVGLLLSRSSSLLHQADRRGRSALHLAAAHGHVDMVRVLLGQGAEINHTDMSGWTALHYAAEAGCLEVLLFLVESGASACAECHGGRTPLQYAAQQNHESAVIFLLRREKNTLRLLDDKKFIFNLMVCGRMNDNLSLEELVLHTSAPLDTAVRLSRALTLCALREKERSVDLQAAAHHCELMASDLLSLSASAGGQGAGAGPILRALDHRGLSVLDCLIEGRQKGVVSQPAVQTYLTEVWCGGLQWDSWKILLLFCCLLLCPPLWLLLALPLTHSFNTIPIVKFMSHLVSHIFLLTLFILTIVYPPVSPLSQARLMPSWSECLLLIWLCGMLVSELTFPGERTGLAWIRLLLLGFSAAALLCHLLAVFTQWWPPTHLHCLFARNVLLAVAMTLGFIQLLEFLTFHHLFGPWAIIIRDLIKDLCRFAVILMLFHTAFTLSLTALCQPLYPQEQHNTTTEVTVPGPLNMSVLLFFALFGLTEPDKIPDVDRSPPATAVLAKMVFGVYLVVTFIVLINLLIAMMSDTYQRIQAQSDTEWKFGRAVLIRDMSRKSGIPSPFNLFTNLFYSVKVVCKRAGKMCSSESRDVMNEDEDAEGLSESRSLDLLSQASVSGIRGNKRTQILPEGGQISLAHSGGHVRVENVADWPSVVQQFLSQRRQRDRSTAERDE
Sequence of Voltage-gated inwardly rectifying potassium channel KCNH2 (Q12809 whole entry): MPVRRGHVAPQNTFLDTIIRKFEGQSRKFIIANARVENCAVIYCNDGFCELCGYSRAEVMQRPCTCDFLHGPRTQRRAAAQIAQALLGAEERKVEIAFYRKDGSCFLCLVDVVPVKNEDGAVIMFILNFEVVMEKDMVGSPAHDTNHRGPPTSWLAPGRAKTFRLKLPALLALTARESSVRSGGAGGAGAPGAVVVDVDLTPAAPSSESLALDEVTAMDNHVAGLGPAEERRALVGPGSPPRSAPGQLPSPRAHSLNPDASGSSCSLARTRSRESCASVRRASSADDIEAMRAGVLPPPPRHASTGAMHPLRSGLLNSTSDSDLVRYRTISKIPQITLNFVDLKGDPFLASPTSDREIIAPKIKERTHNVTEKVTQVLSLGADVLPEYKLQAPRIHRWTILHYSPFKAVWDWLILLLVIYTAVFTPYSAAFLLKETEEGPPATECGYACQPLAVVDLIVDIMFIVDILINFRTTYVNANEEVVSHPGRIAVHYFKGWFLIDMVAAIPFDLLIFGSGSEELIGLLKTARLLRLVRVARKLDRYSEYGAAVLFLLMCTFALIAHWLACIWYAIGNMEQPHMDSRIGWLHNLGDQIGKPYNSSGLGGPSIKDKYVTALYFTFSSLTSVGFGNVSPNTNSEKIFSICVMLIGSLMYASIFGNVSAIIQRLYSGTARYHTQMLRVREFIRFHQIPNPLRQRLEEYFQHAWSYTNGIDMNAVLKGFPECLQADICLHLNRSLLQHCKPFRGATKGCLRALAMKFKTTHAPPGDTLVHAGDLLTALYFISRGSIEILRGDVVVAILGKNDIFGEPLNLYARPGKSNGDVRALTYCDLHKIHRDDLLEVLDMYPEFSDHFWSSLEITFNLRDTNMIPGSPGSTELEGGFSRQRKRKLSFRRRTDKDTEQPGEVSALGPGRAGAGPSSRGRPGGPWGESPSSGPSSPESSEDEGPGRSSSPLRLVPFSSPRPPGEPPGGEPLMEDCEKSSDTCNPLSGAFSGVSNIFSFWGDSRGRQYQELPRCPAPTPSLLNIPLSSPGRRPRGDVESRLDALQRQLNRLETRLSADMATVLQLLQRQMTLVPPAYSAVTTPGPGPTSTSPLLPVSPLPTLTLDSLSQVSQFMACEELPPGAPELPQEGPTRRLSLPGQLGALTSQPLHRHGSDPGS
Sequence of Glyceraldehyde-3-phosphate dehydrogenase (P04406 whole entry): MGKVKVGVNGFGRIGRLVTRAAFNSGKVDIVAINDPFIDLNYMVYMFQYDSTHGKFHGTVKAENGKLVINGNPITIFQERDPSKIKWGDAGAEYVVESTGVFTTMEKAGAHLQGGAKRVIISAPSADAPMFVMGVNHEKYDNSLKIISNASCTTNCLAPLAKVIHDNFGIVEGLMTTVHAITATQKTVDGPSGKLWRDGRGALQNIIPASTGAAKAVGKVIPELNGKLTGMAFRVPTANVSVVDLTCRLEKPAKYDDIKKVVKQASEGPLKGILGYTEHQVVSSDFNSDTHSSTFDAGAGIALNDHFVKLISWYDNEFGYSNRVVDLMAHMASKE
Sequence of FAD-linked sulfhydryl oxidase ALR (P55789 whole entry): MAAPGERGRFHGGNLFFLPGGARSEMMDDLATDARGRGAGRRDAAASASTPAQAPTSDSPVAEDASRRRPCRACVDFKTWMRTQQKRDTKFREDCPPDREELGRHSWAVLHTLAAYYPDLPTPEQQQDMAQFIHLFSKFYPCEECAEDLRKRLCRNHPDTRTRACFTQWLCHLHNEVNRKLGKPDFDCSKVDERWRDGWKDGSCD

For `O=C(Nc1cccc(-c2nnc(-c3ccccc3)o2)c1)C1CCCCC1`, the IC50 [1] was 6.03 µM (active) and the IC50 [2] was > 111 µM (not active).

With `Cc1cc(C)cc(N(CC(=O)N2CCOCC2)S(=O)(=O)c2ccccc2)c1` the EC50 (Mucolipin-3) was 3.71 µM (active) and the EC50 (Ion channel NompC) was > 29.9 µM (not active).

With `Cc1ccccc1N1CCN(C2=C(Cl)C(=O)N(c3ccc(Cl)c(Cl)c3)C2=O)CC1` the IC50 (Bcl-2-related protein A1 [3]) was > 100 µM (not active), the IC50 (Bcl-2-related protein A1 [4]) was > 100 µM (not active) and the IC50 [5] was > 100 µM (not active).

In the case of `O=C(Cc1cccs1)Nc1ccc(S(=O)(=O)N2CCCCC2)cc1`, the IC50 (Estrogen receptor beta [6]) is reported as 2.71 µM (active), the IC50 (Estrogen receptor beta [7]) is reported as < 77 µM (not active) and the IC50 [8] is reported as 4.95 µM (active).

For `COc1ccc(/C=C2/NC(=O)N(CC(=O)Nc3cccc(C)c3)C2=O)cc1O`, the IC50 [1] was 9.14 µM (active) and the IC50 [2] was > 111 µM (not active).

For `O=C(COc1ccc(Cl)cc1Cl)NC(=S)N1CCCc2ccccc21`, the EC50 [9] was 4.06 µM (active).

`C=C(C)C(O)/C=C/c1cccc(OC)c1` (stereo not drawn) was tested, and the AC50 (Cytochrome P450 2C9) was 7.94 µM (inconclusive) and the AC50 (Cytochrome P450 2D6) was 7.94 µM (inconclusive).

In the case of `N#C/C(=N\Nc1c(Cl)cccc1Cl)C(=O)NN`, the AC50 [10] is reported as 2.37 µM (active) and the IC50 [11] is reported as 28.2 µM (not active).

In the case of `O=c1c(/C=N/O)c(Nc2ccccc2)nc2ccccn12`, the IC50 [11] is reported as > 69.5 µM (not active).
